Patent publication US20200331904A1, “3-AMINO-[1,2,4]-TRIAZOLE DERIVATIVES AND THEIR USE FOR CONTROLLING UNDESIRED PLANT GROWTH” (Bayer CropScience Aktiengesellschaft, priority 2017, published 2020)

Key:
Type in all cases: in vivo
Matricaria inodora = experiment: Pre-emergence herbicidal efficacy, MATIN
Description: (§1) C.1 Pre-Emergence Herbicidal Action and Crop Plant Compatibility
(§2) Seeds of monocotyledonous and dicotyledonous weed plants and crop plants are placed in plastic or organic planting pots and covered with soil. The compounds of the invention, formulated in the form of wettable powders (WP) or as emulsion concentrates (EC), are then applied onto the surface of the covering soil as aqueous suspension or emulsion with addition of 0.5% additive at a water application rate of […] (converted). After the treatment, the pots are placed in a greenhouse and kept under good growth conditions for the trial plants. After about 3 weeks, the effect of the preparations is scored visually in comparison with untreated controls as percentages. For example, 100% activity=the plants have died, 0% activity=like control plants.
(§3) ABUTH: Abutilon theophrasti ALOMY: Alopecurus myosuroides AMARE: Amaranthus retroflexus AVEFA: Avena fatua CYPES: Cyperus esculentus ECHCG: Echinochloa crus-galli LOLMU: Lolium multiflorum MATIN: Matricaria inodora PHBPU: Ipomoea purpurea POLCO: Polygonum convolvulus SETVI: Setaria viridis STEME: Stellaria media VERPE: Veronica persica VTOTR: Viola tricolor

Stellaria media = experiment: Pre-emergence herbicidal efficacy, STEME
Description: as §1, §2, §3

Viola tricolor = experiment: Pre-emergence herbicidal efficacy, VIOTR
Description: as §1, §2, §3

Amaranthus retroflexus = experiment: Pre-emergence herbicidal efficacy, AMARE; settings: Table B2, application rate 320 g/ha, scored visually after about 3 weeks vs untreated controls
Description: as §1, §2, §3

Veronica persica = experiment: Pre-emergence herbicidal efficacy, VERPE; settings: Table B2, application rate 320 g/ha, scored visually after about 3 weeks vs untreated controls
Description: as §1, §2, §3

[1] = application rate 320 g/ha, scored visually after about 3 weeks
[2] = Table B2, application rate 320 g/ha, scored visually after about 3 weeks vs untreated controls

| Compound | Herbicidal efficacy against MATIN (Matricaria inodora; [1]) | Herbicidal efficacy against STEME (Stellaria media; [1]) | Herbicidal efficacy against VIOTR (Viola tricolor; [1]) | Herbicidal efficacy against AMARE (Amaranthus retroflexus) | Herbicidal efficacy against MATIN (Matricaria inodora; [2]) | Herbicidal efficacy against STEME (Stellaria media; [2]) | Herbicidal efficacy against VIOTR (Viola tricolor; [2]) | Herbicidal efficacy against VERPE (Veronica persica) |
| --- | --- | --- | --- | --- | --- | --- | --- | --- |
| c1ccc2c(c1)CCC2Nc1nc2n(n1)CCCCS2 (stereo not drawn) [Example I-212] | 100% | 100% | 100% | – | – | – | – | – |
| c1ccc2c(c1)OCCC2Nc1nc2n(n1)CCCCS2 (stereo not drawn) [Example I-211] | 100% | 100% | 100% | – | – | – | – | – |
| Cc1ccc2c(c1)C(Nc1nc3n(n1)CCC(=O)N3Cc1ccccc1)CCC2 (stereo not drawn) [Example I-315] | – | – | – | 80% | 80% | 90% | 100% | 100% |
| Cc1ccc2c(c1)[C@H](Nc1nc3n(n1)CCN(C(=O)c1ccccc1)C3)CCC2 [Example I-181] | 100% | 100% | 100% | – | – | – | – | – |
| O=S(=O)(Cc1ccccc1)N1CCn2nc(NC3CCCc4ccccc43)nc2C1 (stereo not drawn) [Example I-078] | 70% | 90% | 100% | – | – | – | – | – |
| O=C1CCn2nc(NC3CCCc4ccccc43)nc2N1CC1CC1 (stereo not drawn) [Example I-228] | 100% | 100% | 100% | – | – | – | – | – |
| CC1CCc2ccccc2C1Nc1nc2n(n1)CCCCS2(=O)=O (stereo not drawn) [Example I-368] | – | – | – | 100% | 100% | 100% | 100% | 100% |
| O=C(C1CC1)N1CCn2nc(NC3CCCc4ccccc43)nc2C1 (stereo not drawn) [Example I-060] | 100% | 100% | 90% | – | – | – | – | – |
| Cc1ccc2c(c1)C(Nc1nc3n(n1)CCN(C(=O)c1cccc(C(F)(F)F)c1)C3)C(C)C2 (stereo not drawn) [Example I-168] | 80% | 90% | 100% | – | – | – | – | – |
| Cc1ccc2c(c1)C(Nc1nc3n(n1)CCCN3S(=O)(=O)C(C)C)CCC2 (stereo not drawn) [Example I-325] | – | 100% | – | – | – | – | – | – |
| Cc1ccc2c(c1)[C@H](Nc1nc3n(n1)CCN(C(=O)c1ccccc1Cl)C3)CCC2 [Example I-184] | 90% | 100% | 100% | – | – | – | – | – |
| O=C1CCn2nc(NC3CCCc4ccccc43)nc2N1CC1CCCCC1 (stereo not drawn) [Example I-271] | 90% | 90% | 90% | – | – | – | – | – |
| Cc1ccc2c(c1)[C@H](Nc1nc3n(n1)CCN(C(=O)c1cccc(Cl)c1)C3)CC2 [Example I-178] | 70% | 100% | 100% | – | – | – | – | – |
| CS(=O)(=O)N1CCCn2nc(NC3CCCc4ccccc43)nc21 (stereo not drawn) [Example I-305] | 100% | 100% | 100% | – | – | – | – | – |
| CC(C)S(=O)(=O)N1CCn2nc(NC3CCCc4ccccc43)nc2C1 (stereo not drawn) [Example I-094] | 100% | 100% | 100% | – | – | – | – | – |
| c1ccc2c(c1)CCCC2Nc1nc2n(n1)CCCS2 (racemic) [Example I-209] | 100% | 100% | 100% | – | – | – | – | – |
| c1ccc2c(c1)CCCC2Nc1nc2n(n1)CCCCS2 (stereo not drawn) [Example I-216] | 100% | 100% | 100% | – | – | – | – | – |
| O=C(c1ccccc1)N1CCn2nc(N[C@@H]3CCCc4ccccc43)nc2C1 [Example I-164] | 90% | 100% | 100% | – | – | – | – | – |
| Cc1ccc2c(c1)[C@H](Nc1nc3n(n1)CCNC3)CCC2 [Example I-157] | 80% | 100% | 100% | – | – | – | – | – |
| O=S1(=O)CCCn2nc(NC3CCOc4ccccc43)nc21 (stereo not drawn) [Example I-242] | 100% | 80% | – | – | – | – | – | – |
| O=C1CCn2nc(NC3CCOc4ccccc43)nc2N1CC1CCCCC1 (stereo not drawn) [Example I-255] | – | 90% | 100% | – | – | – | – | – |
| CS(=O)(=O)N1CCn2nc(NC3CCCc4ccccc43)nc2C1 (stereo not drawn) [Example I-097] | 100% | 100% | 100% | – | – | – | – | – |

| Compound | Herbicidal efficacy against MATIN (Matricaria inodora; [1]) | Herbicidal efficacy against STEME (Stellaria media; [1]) | Herbicidal efficacy against VIOTR (Viola tricolor; [1]) | Herbicidal efficacy against AMARE (Amaranthus retroflexus) | Herbicidal efficacy against MATIN (Matricaria inodora; [2]) | Herbicidal efficacy against STEME (Stellaria media; [2]) | Herbicidal efficacy against VIOTR (Viola tricolor; [2]) | Herbicidal efficacy against VERPE (Veronica persica) |
| --- | --- | --- | --- | --- | --- | --- | --- | --- |
| c1ccc2c(c1)OCCC2Nc1nc2n(n1)CCCS2 (racemic) [Example I-204] | 100% | 100% | – | – | – | – | – | – |
| Cc1ccc2c(c1)C(Nc1nc3n(n1)CCN(C(=O)c1ccccc1Cl)C3)C(C)C2 (stereo not drawn) [Example I-169] | 90% | 100% | 100% | – | – | – | – | – |
| Cc1ccc2c(c1)[C@H](Nc1nc3n(n1)CCN(C(=O)c1cccc(Cl)c1)C3)CCC2 [Example I-185] | 90% | 100% | 100% | – | – | – | – | – |
| O=C(C1CC1)N1CCn2nc(N[C@@H]3CCc4ccccc43)nc2C1 [Example I-160] | 90% | 100% | 100% | – | – | – | – | – |
| CCN1CCn2nc(N[C@@H]3CCCc4ccc(C)cc43)nc2C1 [Example I-343] | – | – | – | 100% | 100% | 100% | 100% | 100% |
| O=S(=O)(Cc1ccccc1)N1CCn2nc(NC3CCOc4ccccc43)nc2C1 (stereo not drawn) [Example I-076] | – | 90% | 100% | – | – | – | – | – |
| Cc1ccc2c(c1)[C@H](Nc1nc3n(n1)CCN(C(=O)c1cccc(C(F)(F)F)c1)C3)CCC2 [Example I-183] | 90% | 100% | 90% | – | – | – | – | – |
| CC(=O)N1CCn2nc(N[C@@H]3CCc4ccccc43)nc2C1 [Example I-158] | 90% | 100% | 100% | – | – | – | – | – |
| Cc1ccc2c(c1)C(Nc1nc3n(n1)CCN(C(=O)c1ccccc1)C3)C(C)C2 (stereo not drawn) [Example I-166] | 90% | 100% | 100% | – | – | – | – | – |
| Cc1ccc2c(c1)[C@H](Nc1nc3n(n1)CCN(C(=O)c1cccc(C(F)(F)F)c1)C3)CC2 [Example I-176] | 80% | 80% | 90% | – | – | – | – | – |
| O=C1CCn2nc(NC3CCc4ccccc43)nc2N1CC1CCCCC1 (stereo not drawn) [Example I-223] | 90% | 100% | 90% | – | – | – | – | – |
| Cc1ccc2c(c1)C(Nc1nc3n(n1)CCCN3S(=O)(=O)C1CC1)CC2 (stereo not drawn) [Example I-336] | – | – | – | 100% | 100% | 100% | 100% | 100% |
| CC(C)N1C(=O)CCn2nc(NC3CCCc4ccccc43)nc21 (stereo not drawn) [Example I-262] | – | 100% | 100% | – | – | – | – | – |
| O=S1(=O)CCCCn2nc(NC3CCc4ccccc43)nc21 (stereo not drawn) [Example I-236] | 100% | 100% | 100% | – | – | – | – | – |
| Cc1ccc2c(c1)[C@H](Nc1nc3n(n1)CCN(C(=O)c1ccc(Cl)cc1)C3)CC2 [Example I-179] | 90% | 100% | 70% | – | – | – | – | – |
| Cc1ccc2c(c1)[C@H](Nc1nc3n(n1)CCN(C(=O)c1ccccc1Cl)C3)CC2 [Example I-177] | 90% | 100% | 100% | – | – | – | – | – |
| CC(=O)N1CCn2nc(NC3CCCc4ccccc43)nc2C1 (stereo not drawn) [Example I-061] | 100% | 100% | 100% | – | – | – | – | – |
| O=S1(=O)CCCn2nc(NC3CCCc4ccccc43)nc21 (stereo not drawn) [Example I-252] | 100% | 100% | – | – | – | – | – | – |
| Cc1ccc2c(c1)C(Nc1nc3n(n1)CCN(C(=O)C1CCCCC1)C3)C(C)C2 (stereo not drawn) [Example I-172] | 90% | 100% | 100% | – | – | – | – | – |
| Cc1ccc2c(c1)[C@H](Nc1nc3n(n1)CCN(C(=O)c1ccccc1)C3)CC2 [Example I-174] | 90% | 100% | 100% | – | – | – | – | – |
| Cc1ccc2c(c1)[C@H](Nc1nc3n(n1)CCN(C(=O)c1ccc(Cl)cc1)C3)CCC2 [Example I-186] | 80% | 100% | 100% | – | – | – | – | – |
